Results from ChEMBL document CHEMBL5726007, “Therapeutic compounds and uses thereof” (2018).

Biological target: T1, Bromodomain-containing protein 9 (Homo sapiens, UniProt Q9H8M2)
T1 sequence (Q9H8M2 whole entry): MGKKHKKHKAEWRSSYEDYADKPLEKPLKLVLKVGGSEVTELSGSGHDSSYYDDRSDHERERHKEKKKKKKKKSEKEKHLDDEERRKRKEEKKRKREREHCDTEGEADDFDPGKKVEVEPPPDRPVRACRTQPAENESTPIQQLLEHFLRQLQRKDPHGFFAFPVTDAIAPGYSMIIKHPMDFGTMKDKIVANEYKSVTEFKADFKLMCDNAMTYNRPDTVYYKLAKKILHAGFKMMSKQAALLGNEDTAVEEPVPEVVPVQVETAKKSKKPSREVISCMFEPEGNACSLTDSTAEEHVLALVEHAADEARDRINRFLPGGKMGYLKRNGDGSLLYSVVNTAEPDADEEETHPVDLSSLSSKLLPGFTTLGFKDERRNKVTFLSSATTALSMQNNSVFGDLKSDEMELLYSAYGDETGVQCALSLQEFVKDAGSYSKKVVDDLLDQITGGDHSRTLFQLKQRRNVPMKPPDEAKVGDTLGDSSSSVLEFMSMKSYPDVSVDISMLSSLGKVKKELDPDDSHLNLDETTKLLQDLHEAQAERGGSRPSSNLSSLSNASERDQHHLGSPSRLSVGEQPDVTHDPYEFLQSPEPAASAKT
Test: After 20 minutes incubation at room temperature AlphaLisa Streptavidin Acceptor Beads (Perkin-AL125C) and AlphaLisa Nickel donor beads (Perkin AS 10 ID) were added to a final concentration of 15 ug/mL each.

In the case of `CC(C)n1cc(-c2ccc(C(C)(C)O)cc2)c2cc[nH]c2c1=O`, the IC50 is reported as 4.1 µM.
